From ChEMBL document CHEMBL1201862, “PubChem BioAssay data set” (2004)
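How tested: cells in 96-well plates exposed to compound for 48 hours at five concentrations. GI50 is the concentration that inhibits growth by half.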 Active and inactive are the calls of the source. Rule as the data show it: active = GI50 up to about 1.1 µM and inactive = higher.

What was measured:
Experiment in all cases: growth of human tumour cells (NCI), 48 h
TK-10 = tested on: TK-10
SK-OV-3 = tested on: SK-OV-3
SNB-19 = tested on: SNB-19
M14 = tested on: M14
RPMI-8226 = tested on: RPMI-8226
EKVX = tested on: EKVX
UACC-257 = tested on: UACC-257
HCT-15 = tested on: HCT-15
CAKI-1 = tested on: CAKI-1
OVCAR-3 = tested on: OVCAR-3
HL-60 = tested on: HL-60
OVCAR-5 = tested on: OVCAR-5
NCI-H23 = tested on: NCI-H23
MCF7 = tested on: MCF7
NCI-H460 = tested on: NCI-H460
UACC-62 = tested on: UACC-62
UO-31 = tested on: UO-31
LOX IMVI = tested on: LOX IMVI
SR = tested on: SR
HCC 2998 = tested on: HCC 2998

Measured: GI50

COc1cc2c(c(OC)c1OC)-c1ccc(SC)c(=O)cc1C(NC=O)CC2 (centres undefined)
inactive: TK-10 2.02 µM | EKVX 3.6 µM
< 0.01 µM: HCT-15
active: SK-OV-3 0.0371 µM | SNB-19 0.0344 µM | M14 < 0.01 µM | RPMI-8226 < 0.01 µM | UACC-257 0.249 µM | CAKI-1 0.0183 µM | OVCAR-3 < 0.01 µM | HL-60 < 0.01 µM | OVCAR-5 0.164 µM | NCI-H23 < 0.01 µM | MCF7 < 0.0107 µM | NCI-H460 < 0.01 µM | UACC-62 < 0.01 µM | UO-31 0.0188 µM | LOX IMVI < 0.01 µM | SR < 0.01 µM | HCC 2998 < 0.01 µM

CC1(C)OC(CCC#N)CN1C(=O)OCc1ccccc1 (centres undefined)
inactive: TK-10 > 100 µM | SK-OV-3 > 100 µM | SNB-19 9.57 µM | M14 > 100 µM | RPMI-8226 > 100 µM | EKVX > 100 µM | UACC-257 > 100 µM | CAKI-1 > 100 µM | OVCAR-3 > 100 µM | HL-60 > 100 µM | OVCAR-5 > 100 µM | NCI-H23 > 100 µM | MCF7 > 100 µM | NCI-H460 > 100 µM | UACC-62 > 100 µM | UO-31 > 100 µM | LOX IMVI > 100 µM | SR > 100 µM | HCC 2998 > 100 µM
> 100 µM: HCT-15

COc1ccc2c3c1OC1C4(CCC5C(C2)N(CC2CC2)CCC351)OCCO4 (centres undefined)
> 100 µM: HCT-15
inactive: TK-10 > 100 µM | SK-OV-3 > 100 µM | SNB-19 > 100 µM | M14 > 100 µM | RPMI-8226 > 100 µM | EKVX > 100 µM | UACC-257 > 100 µM | CAKI-1 > 100 µM | OVCAR-3 > 100 µM | HL-60 > 100 µM | OVCAR-5 > 100 µM | NCI-H23 > 100 µM | MCF7 > 100 µM | NCI-H460 > 100 µM | UACC-62 > 100 µM | UO-31 > 100 µM | LOX IMVI > 100 µM | SR > 100 µM | HCC 2998 > 100 µM

Cc1csc2c1C(=O)c1ccsc1C2=O
inactive: TK-10 19.1 µM | SK-OV-3 20.4 µM | SNB-19 3.37 µM | RPMI-8226 3.61 µM | EKVX 7.98 µM | UACC-257 1.52 µM | CAKI-1 19.6 µM | OVCAR-3 2.07 µM | HL-60 2.65 µM | OVCAR-5 1.96 µM | NCI-H23 1.16 µM | MCF7 1.41 µM | NCI-H460 1.87 µM | UACC-62 1.69 µM | UO-31 2.87 µM | LOX IMVI 1.26 µM | SR 4.15 µM | HCC 2998 6.11 µM
1.49 µM: HCT-15
active: M14 0.778 µM

c1ccc2sc(C3(N4CCCCC4)CCCCCC3)cc2c1
17.3 µM: HCT-15
inactive: TK-10 25.1 µM | SK-OV-3 25.3 µM | SNB-19 20.8 µM | M14 27 µM | RPMI-8226 14.2 µM | EKVX 22.9 µM | UACC-257 18.8 µM | CAKI-1 26.7 µM | OVCAR-3 19.4 µM | HL-60 2.1 µM | OVCAR-5 18.8 µM | NCI-H23 20.5 µM | MCF7 17.8 µM | NCI-H460 17.1 µM | UACC-62 25.4 µM | UO-31 25.1 µM | LOX IMVI 18.5 µM | SR 19.1 µM | HCC 2998 13.4 µM

COc1ccc(C(=O)c2[nH]c(Nc3cc(C)ccn3)c(C(=S)Nc3ccccc3)c2N)cc1
inactive: TK-10 20 µM | SK-OV-3 19.5 µM | SNB-19 18.8 µM | M14 20.5 µM | RPMI-8226 13.3 µM | EKVX 22.3 µM | UACC-257 15.9 µM | CAKI-1 36.6 µM | OVCAR-3 41.6 µM | HL-60 24.3 µM | OVCAR-5 26.1 µM | NCI-H23 21.9 µM | MCF7 20.4 µM | NCI-H460 6.04 µM | UACC-62 12.9 µM | UO-31 21.8 µM | LOX IMVI 18.7 µM | SR 15.2 µM | HCC 2998 17.1 µM
21.1 µM: HCT-15

COc1ccccc1-n1c(=O)n(C)c(=O)n1C(C)(C)C
> 100 µM: HCT-15
inactive: TK-10 > 100 µM | SK-OV-3 > 100 µM | SNB-19 > 100 µM | M14 > 100 µM | RPMI-8226 > 100 µM | EKVX > 100 µM | UACC-257 > 100 µM | CAKI-1 > 100 µM | OVCAR-3 > 100 µM | HL-60 > 100 µM | OVCAR-5 > 100 µM | NCI-H23 > 100 µM | MCF7 > 100 µM | NCI-H460 > 100 µM | UACC-62 > 100 µM | UO-31 > 100 µM | LOX IMVI > 100 µM | SR > 100 µM
active: HCC 2998 0.288 µM

CC(=O)O[C@H]1C(=O)[C@@]2(C)[C@H]([C@H](OC(=O)c3ccco3)[C@]3(O)C[C@H](OC(=O)[C@H](O)[C@@H](NC(=O)c4ccccc4)c4ccccc4)C(C)=C1C3(C)C)[C@]1(OC(C)=O)CO[C@@H]1C[C@@H]2O
active: SK-OV-3 0.287 µM | SNB-19 0.344 µM | M14 0.421 µM | RPMI-8226 0.0189 µM | UACC-257 0.42 µM | OVCAR-3 0.0612 µM | HL-60 0.0227 µM | OVCAR-5 0.333 µM | NCI-H23 0.412 µM | MCF7 0.034 µM | NCI-H460 0.164 µM | UACC-62 0.277 µM | LOX IMVI 0.129 µM | SR 0.0809 µM | HCC 2998 0.296 µM
inactive: TK-10 8.41 µM | EKVX > 8.79 µM | CAKI-1 14.3 µM | UO-31 > 18.3 µM
15.1 µM: HCT-15

O=c1[nH]nc(Cc2ccccc2)n1C1CCCC1
inactive: TK-10 > 100 µM | SK-OV-3 > 100 µM | SNB-19 > 100 µM | M14 > 100 µM | RPMI-8226 > 100 µM | EKVX > 100 µM | UACC-257 > 100 µM | CAKI-1 > 100 µM | OVCAR-3 > 100 µM | HL-60 > 100 µM | OVCAR-5 > 100 µM | NCI-H23 > 100 µM | MCF7 > 100 µM | NCI-H460 > 100 µM | UACC-62 > 100 µM | UO-31 > 100 µM | LOX IMVI > 100 µM | SR > 100 µM | HCC 2998 > 100 µM
> 100 µM: HCT-15

N/C(CSCCSC/C(N)=N/O)=N\O
> 100 µM: HCT-15
inactive: TK-10 > 100 µM | SK-OV-3 > 100 µM | SNB-19 > 100 µM | M14 > 100 µM | RPMI-8226 > 100 µM | EKVX > 100 µM | CAKI-1 > 100 µM | OVCAR-3 > 100 µM | HL-60 > 100 µM | OVCAR-5 > 100 µM | NCI-H23 > 100 µM | MCF7 > 100 µM | NCI-H460 > 100 µM | UACC-62 > 100 µM | UO-31 > 100 µM | LOX IMVI > 100 µM | SR > 100 µM | HCC 2998 > 100 µM

Cc1cc(SCC(=O)c2ccc(Br)cc2)cc(C)[o+]1
32.1 µM: HCT-15
inactive: TK-10 35.1 µM | SK-OV-3 60 µM | SNB-19 36.7 µM | M14 26.5 µM | RPMI-8226 21.7 µM | EKVX 12.4 µM | UACC-257 25.1 µM | CAKI-1 35.9 µM | OVCAR-3 21.4 µM | HL-60 13.5 µM | OVCAR-5 20.6 µM | NCI-H23 31.6 µM | MCF7 19.3 µM | NCI-H460 25.5 µM | UACC-62 31.4 µM | UO-31 26.6 µM | LOX IMVI 32.1 µM | SR 22.8 µM | HCC 2998 25.2 µM

CN(C)c1n/c(=N/Cc2cccs2)ss1
inactive: TK-10 > 10 µM | SK-OV-3 > 10 µM | SNB-19 > 10 µM | M14 > 10 µM | RPMI-8226 > 3.04 µM | EKVX > 10 µM | UACC-257 > 10 µM | CAKI-1 > 10 µM | OVCAR-3 > 10 µM | HL-60 1.35 µM | OVCAR-5 > 10 µM | NCI-H23 > 10 µM | MCF7 > 10 µM | NCI-H460 > 10 µM | UACC-62 > 10 µM | UO-31 > 10 µM | LOX IMVI > 5.62 µM | HCC 2998 > 10 µM
active: SR 0.573 µM
> 10 µM: HCT-15

CCCCc1ccc(Nc2nc(Cl)c3ccn(C4CC(Oc5ccc(C)cc5)C(COc5ccc(C)cc5)O4)c3n2)cc1 (centres undefined)
inactive: TK-10 30.3 µM | SK-OV-3 > 46.5 µM | SNB-19 25.9 µM | M14 > 46.5 µM | RPMI-8226 > 46.5 µM | EKVX 28.6 µM | UACC-257 25.9 µM | CAKI-1 > 46.5 µM | OVCAR-3 > 100 µM | HL-60 > 46.5 µM | OVCAR-5 > 31.6 µM | NCI-H23 24.8 µM | MCF7 > 46.5 µM | NCI-H460 > 31.6 µM | UACC-62 24.5 µM | UO-31 25.6 µM | LOX IMVI > 46.5 µM | SR > 10 µM | HCC 2998 > 46.5 µM
> 46.5 µM: HCT-15

CC1C2C=CC1C(c1c3ccc(=O)c(O)c-3oc3c(O)c(O)ccc13)C2C(=O)O (centres undefined)
47.2 µM: HCT-15
inactive: TK-10 > 100 µM | SK-OV-3 > 100 µM | SNB-19 > 100 µM | M14 > 100 µM | RPMI-8226 23.2 µM | EKVX 50.9 µM | UACC-257 > 100 µM | CAKI-1 > 100 µM | OVCAR-3 > 100 µM | HL-60 44.3 µM | OVCAR-5 > 100 µM | NCI-H23 35.6 µM | MCF7 20.7 µM | NCI-H460 > 100 µM | UACC-62 > 100 µM | UO-31 > 100 µM | LOX IMVI 20.9 µM | SR 33.9 µM | HCC 2998 > 100 µM
